Results from patent US9872873B2, “Process for preparing stable pharmaceutical compositions of compounds susceptible to hydrolysis” (Fresenius Kabi Oncology Limited, priority 2012, dated 2018).

How the values were obtained:
[1] = Stability profile of Decitabine pre-lyophilized bulk solution at 25° C. in water; assay type: physicochemical
Procedure: The manufacture of a freeze dried product necessitates that the product is usually first manufactured as a solution, filtered to sterilize, aseptically filled, and finally lyophilized to remove the solvents. All of these unit operations require that the product be held in the solution state for a defined period of time, at least for 4 hours. A batch of Decitabine bulk solution was prepared by dissolving the drug (5 mg/mL) and buffer (Potassium dihydrogen phosphate 6.8 mg/mL, sodium hydroxide 1.16 mg/mL) in water and at room temperature.

[2] = Stability profile of Decitabine pre-lyophilized bulk solution at −1° C. in water; assay type: physicochemical
[3] = Freezing point of bulk solution of Decitabine using various solvents and buffers; assay type: physicochemical
Description: The advantages of using these non-aqueous solvent systems include: increased drug wetting or solubility, increased sublimation rates, increased pre-dried bulk solution or dried product stability, decreased reconstitution time, and enhancement of sterility assurance of the pre-dried bulk solution. A pre-requisite for such a solvent to be utilized efficiently for depression of freezing point of water would be to have satisfactory drug solubility in solvent system. […] Various solvents were evaluated for intended purpose e.g. Dimethylsulfoxide (1-30%), Ethanol (1-30%), Tertiary-butanol (1-30%), and their combinations were used in the range of 1-30% and thus were evaluated for their effect in decreasing the freezing point of bulk solution as summarized in Table VII. Although Ethanol decreased the freezing point of the drug solution and ensured drug solubility at low temperature, it was not suitable as a solvent for lyophilization as lyophilized cake could not be formed using this solvent system. Dimethyl sulphoxide is not suitable solvent for Lyophilization as it is difficult to remove during lyophilization.

[4] = Solution stability of Decitabine bulk solution in Water:Acetonitrile 80:20% v/v at −5 ± 2° C.; assay type: physicochemical
[5] = cited from earlier work
[6] = Initial (5 minutes after drug dissolution)

Structure (SMILES): Nc1ncn([C@H]2C[C@H](O)[C@@H](CO)O2)c(=O)n1 [Decitabine, 5-aza-2′ deoxycytidine]
- Related Substances: 5-Azacytosine ([1]; 2 h): 0.05%
- Related Substances: H-unk (Highest Unknown Impurity) ([1]; 2 h): 12.42%
- Related Substances: Six member Decitabine ([1]; 2 h): 0.34%
- Related Substances: Total ([1]; 2 h): 25.44%
- Related Substances: α-Decitabine ([1]; 2 h): 0.00%
- Related Substances: 5-Azacytosine ([1]; 4 h): 0.05%
- Related Substances: H-unk (Highest Unknown Impurity) ([1]; 4 h): 14.14%
- Related Substances: Six member Decitabine ([1]; 4 h): 0.81%
- Related Substances: Total ([1]; 4 h): 31.46%
- Related Substances: α-Decitabine ([1]; 4 h): 0.00%
- Related Substances: 5-Azacytosine [1, 6]: 0.00%
- Related Substances: H-unk (Highest Unknown Impurity) [1, 6]: 10.89%
- Related Substances: Six member Decitabine [1, 6]: 0.05%
- Related Substances: Total [1, 6]: 12.12%
- Related Substances: α-Decitabine [1, 6]: 0.00%
- Related Substances: 5-Azacytosine ([2]; 1 hr): 0.03%
- Related Substances: H-unk (Highest Unknown Impurity) ([2]; 1 hr): 0.05%
- Related Substances: SP1 ([2]; 1 hr): 0.03%
- Related Substances: SP2 ([2]; 1 hr): 0.01%
- Related Substances: SP3 ([2]; 1 hr): 0.06%
- Related Substances: SP4 ([2]; 1 hr): 0.85%
- Related Substances: SP6 ([2]; 1 hr): 0.07%
- Related Substances: Total ([2]; 1 hr): 1.25%
- Related Substances: α-Decitabine ([2]; 1 hr): 0.02%
- Related Substances: 5-Azacytosine ([2]; 2 hr): 0.04%
- Related Substances: H-unk (Highest Unknown Impurity) ([2]; 2 hr): 0.05%
- Related Substances: SP1 ([2]; 2 hr): 0.03%
- Related Substances: SP2 ([2]; 2 hr): 0.02%
- Related Substances: SP3 ([2]; 2 hr): 0.05%
- Related Substances: SP4 ([2]; 2 hr): 1.50%
- Related Substances: SP6 ([2]; 2 hr): 0.22%
- Related Substances: Total ([2]; 2 hr): 2.06%
- Related Substances: α-Decitabine ([2]; 2 hr): 0.02%
- Related Substances: 5-Azacytosine ([2]; 3 hr): 0.03%
- Related Substances: H-unk (Highest Unknown Impurity) ([2]; 3 hr): 0.05%
- Related Substances: SP1 ([2]; 3 hr): 0.03%
- Related Substances: SP2 ([2]; 3 hr): 0.02%
- Related Substances: SP3 ([2]; 3 hr): 0.05%
- Related Substances: SP4 ([2]; 3 hr): 2.13%
- Related Substances: SP6 ([2]; 3 hr): 0.21%
- Related Substances: Total ([2]; 3 hr): 2.68%
- Related Substances: α-Decitabine ([2]; 3 hr): 0.02%
- Related Substances: 5-Azacytosine ([2]; 4 hr): 0.03%
- Related Substances: H-unk (Highest Unknown Impurity) ([2]; 4 hr): 0.05%
- Related Substances: SP1 ([2]; 4 hr): 0.03%
- Related Substances: SP2 ([2]; 4 hr): 0.04%
- Related Substances: SP3 ([2]; 4 hr): 0.05%
- Related Substances: SP4 ([2]; 4 hr): 1.71%
- Related Substances: SP6 ([2]; 4 hr): 0.95%
- Related Substances: Total ([2]; 4 hr): 3.07%
- Related Substances: α-Decitabine ([2]; 4 hr): 0.01%
- Related Substances: 5-Azacytosine ([2]; Initial): 0.03%
- Related Substances: H-unk (Highest Unknown Impurity) ([2]; Initial): 0.05%
- Related Substances: SP1 ([2]; Initial): 0.03%
- Related Substances: SP2 ([2]; Initial): 0.01%
- Related Substances: SP3 ([2]; Initial): 0.06%
- Related Substances: SP4 ([2]; Initial): 0.35%
- Related Substances: SP6 ([2]; Initial): 0.04%
- Related Substances: Total ([2]; Initial): 0.70%
- Freezing Point of bulk solution ([3]; 5% DMSO + 10% Ethanol + 20% Tertiary-butanol + buffer): −8 to −10 °C
- Freezing Point of bulk solution ([3]; 5% DMSO +10% Ethanol + buffer): −5 °C
- Freezing Point of bulk solution ([3]; 5% DMSO + 15% Ethanol + buffer): −6 to −9 °C
- Freezing Point of bulk solution ([3]; Acetonitrile 5%): −2 to −3 °C
- Freezing Point of bulk solution ([3]; Acetonitrile 10%): −3 to −4 °C
- Freezing Point of bulk solution ([3]; Acetonitrile 15%): −4 to −6 °C
- Freezing Point of bulk solution ([3]; Acetonitrile 20%): −8 °C
- Freezing Point of bulk solution ([3]; DMSO 1%): −0.5 °C
- Freezing Point of bulk solution ([3]; DMSO 2%): −0.8 °C
- Freezing Point of bulk solution ([3]; DMSO 5%): −1.6 °C
- Freezing Point of bulk solution ([3]; DMSO 10%): −3.0 °C
- Freezing Point of bulk solution ([3]; DMSO 15%): −5.5 °C
- Freezing Point of bulk solution ([3]; DMSO 20%): −13.9 °C
- Freezing Point of bulk solution ([3]; DMSO 30%): −16.0 °C
- Freezing Point of bulk solution ([3]; Ethanol 1%): −0.5 °C
- Freezing Point of bulk solution ([3]; Ethanol 2%): −0.7 °C
- Freezing Point of bulk solution ([3]; Ethanol 5%): −2.0 °C
- Freezing Point of bulk solution ([3]; Ethanol 10%): −2.5 °C
- Freezing Point of bulk solution ([3]; Ethanol 15%): −6.1 °C
- Freezing Point of bulk solution ([3]; Ethanol 20%): −13.8 °C
- Freezing Point of bulk solution ([3]; Ethanol 30%): −14.3 °C
- Freezing Point of bulk solution ([3]; Tertiary-butanol 1%): −0.1 °C
- Freezing Point of bulk solution ([3]; Tertiary-butanol 2%): −1.0 °C
- Freezing Point of bulk solution ([3]; Tertiary-butanol 5%): −2.5 °C
- Freezing Point of bulk solution ([3]; Tertiary-butanol 10%): −4.3 °C
- Freezing Point of bulk solution ([3]; Tertiary-butanol 15%): −6.0 °C
- Freezing Point of bulk solution ([3]; Tertiary-butanol 20%): −9.3 °C
- Freezing Point of bulk solution ([3]; Tertiary-butanol 30%): −12.9 °C
- Freezing Point of bulk solution ([3]; n-butanol): Restricted Miscibility
- Related Substances: 5-Azacytosine ([4]; 4 hrs): 0.02%
- Related Substances: H-unk (Highest Unknown Impurity) ([4]; 4 hrs): 0.03%
- Related Substances: SP4 ([4]; 4 hrs): 0.28%
- Related Substances: SP6 ([4]; 4 hrs): 0.29%
- Related Substances: Total ([4]; 4 hrs): 0.67%
- Related Substances: 5-Azacytosine ([4]; Initial): 0.01%
- Related Substances: H-unk (Highest Unknown Impurity) ([4]; Initial): 0.03%
- Related Substances: SP4 ([4]; Initial): 0.04%
- Related Substances: SP6 ([4]; Initial): 0.05%
- Related Substances: Total ([4]; Initial): 0.17%
- Maximum storage time of diluted solution until administration ([5]; prepared with cold (2° C.-8° C.) infusion fluids, stored at 2° C.-8° C.): ≤ 7 h
- Time of use after reconstitution without cold infusion fluids ([5]; reconstituted with Sterile Water for Injection): ≤ 15 min
